Molecules are shown by their SMILES. A value given as a limit tells only on which side of the number the result lay.

Among the data in US9770446B2, “Piperidine urea derivatives” (MERCK PATENT GMBH, priority 2013, dated 2017) are EC50 and IC50 values, retold here.

One assay deals with Tankyrase. Briefly: Cellular inhibition of Tankyrase: Axin2 level in DLD1 cells (Luminex). Type of assay: cell-based. The following applies: 24 hours, Axin2 increase, read-out: EC50 [M] TNKS cellular assay. How it is done:
Measurement of Cellular Inhibition of Tankyrase
Since Tankyrases have been described to modulate cellular level of Axin2 (Huang et al., 2009; Nature) the increase of Axin2 level is used as read-out for determination of cellular inhibition of Tankyrases in a Luminex based assay.
Cells of the colon carcinoma cell line DLD1 are plated in 96 well plates with 1.5×10^4 cells per well. Next day, cells are treated with a serial dilution of test compound in seven steps as triplicates with a final DMSO concentration of 0.3%. After 24 hours, cells are lysed in lysis buffer (20 mM Tris/HCl pH 8.0, 150 mM NaCl, 1% NP40, 10% Glycerol) and lysates are cleared by centrifugation through a 96 well filter plate (0.65 μm). Axin2 protein is isolated from cell lysates by incubation with a monoclonal anti-Axin2 antibody (R&D Systems #MAB6078) that is bound to fluorescent carboxybeads. Then, bound Axin2 is specifically detected with a polyclonal anti-Axin2 antibody (Cell Signaling #2151) and an appropriate PE-fluorescent secondary antibody. The amount of isolated Axin2 protein is determined in a Luminex^200 machine (Luminex Corporation) according to the manufacturer's instruction by counting 100 events per well. Inhibition of Tankyrase by test compounds results in higher levels of Axin2 which directly correlates with an increase of detectable fluorescence. As controls cells are treated with solvent alone (neutral control) and with a Tankyrase reference inhibitor IWR-2 (3E-06 M) which refers as control for maximum increase of Axin2. For analysis, the obtained data are normalized against the untreated solvent control and fitted for determination of the EC50 values using the Assay Explorer software (Accelrys).

Assay [1] has as its target T1, GST-tagged Tnks-1 (1023-1327 aa) (Homo sapiens, UniProt O95271).
T1 construct: GST-tagged Tnks-1 (1023-1327 aa, prepared in-house); made in house
Briefly: TNKS1 activity ELISA (autoparsylation assay). Type of assay: biochemical. How it is done: (§1) Description of the TNKS1 and TNKS2 ELISA Assay
(§2) Biochemical Activity Testing of TNKS 1 and 2: Activity ELISA (Autoparsylation Assay)
(§3) For analysis of autoparsylation activity of TNKS 1 and 2 an activity ELISA iss performed: In the first step GST tagged TNKS is captured on a Glutathione coated plate. Then the activity assay with biotinylated NAD is performed in the absence/presence of the compounds. During the enzymatic reaction GST tagged TNKS transfers biotinylated ADP-ribose to itself from biotinylated NAD as co-substrate. For the detection streptavidin-HRP conjugate is added that binds to the biotinylated TNKS and is thereby captured to the plates. The amount of biotinylated resp. autoparsylated TNKS is detected with a luminescence substrate for HRP. The level of the luminescence signal correlates directly with the amount of autoparsylated TNKS and therefore with activity of TNKS.
(§4) The activity ELISA is performed in 384 well Glutathione coated microtiter plates (Express capture Glutathione coated plate, Biocat, Heidelberg, Germany). The plates are pre-equilibrated with PBS. Then the plates are incubated with 50 μl 20 ng/well GST-tagged Tnks-1 (1023-1327 aa, prepared in-house), respectively GST-tagged Tnks-2 (873-1166 aa, prepared in-house) in assay buffer (50 mM HEPES, 4 mM Mg-chloride, 0.05% Pluronic F-68, 2 mM DTT, pH 7.7) overnight at 4° C. The plates are washed 3 times with PBS-Tween-20. The wells are blocked by incubation at room temperature for 20 minutes with 50 μl blocking buffer (PBS, 0.05% Tween-20, 0.5% BSA). Afterwards the plates are washed 3 times with PBS-Tween-20. The enzymatic reaction is performed in 50 μl reaction solution (50 mM HEPES, 4 mM Mg-chloride, 0.05% Pluronic F-68, 1.4 mM DTT, 0.5% DMSO, pH 7.7) with 10 μM bio-NAD (Biolog, Life science Inst., Bremen, Germany) as co-substrate in the absence or presence of the test compound (10 dilution concentrations) for 1 hour at 30° C. The reaction is stopped by 3 times washing with PBS-Tween20. For the detection 50 μl of 20 ng/μl Streptavidin, HRP conjugate (MoBiTec, Göttingen, Germany) in PBS/0.05% Tween-20/0.01% BSA are added and the plates are incubated for 30 minutes at room temperature. After three times washing with PBS-Tween-20 50 μl of SuperSignal ELISA Femto Maximum sensitivity substrate solution (ThermoFisherScientific (Pierce), Bonn, Germany) are added. Following a 1 minute incubation at room temperature luminescence signals are measured with an Envision multimode reader (Perkin Elmer LAS Germany GmbH) at 700 nm. The full value used is the inhibitor-free reaction. The pharmacological zero value used is XAV-939 (Tocris) in a final concentration of 5 μM. The inhibitory values (IC50) are determined using either the program Symyx Assay Explorer® or Condosseo® from GeneData.

For assay [2], the target named is T2, GST-tagged Tnks-2 (873-1166 aa) (Homo sapiens, UniProt Q9H2K2).
T2 construct: GST-tagged Tnks-2 (873-1166 aa, prepared in-house); made in house
T2 sequence (Q9H2K2 873-1166): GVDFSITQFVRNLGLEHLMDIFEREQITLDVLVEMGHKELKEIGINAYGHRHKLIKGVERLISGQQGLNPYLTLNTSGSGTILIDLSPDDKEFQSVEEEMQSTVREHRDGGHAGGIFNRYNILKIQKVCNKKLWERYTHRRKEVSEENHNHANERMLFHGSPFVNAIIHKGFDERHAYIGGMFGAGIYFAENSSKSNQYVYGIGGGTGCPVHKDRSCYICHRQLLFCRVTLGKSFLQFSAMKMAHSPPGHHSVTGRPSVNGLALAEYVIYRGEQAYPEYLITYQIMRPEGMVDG
Briefly: TNKS2 activity ELISA (autoparsylation assay). Type of assay: biochemical. The procedure:
as §1, §2, §3, §4

Assay [3] addresses T3, GST-tagged Tankyrase-1 (1023-1327 aa) (Homo sapiens, UniProt O95271).
T3 construct: GST-tagged Tankyrase-1 (1023-1327 aa)
Briefly: Tankyrase 1 autoparsylation HTRF enzyme assay. It is filed as biochemical. The following applies: read-out: IC50 TNKS1 enzyme assay. How it is done:
(§5) Biochemical activity testing of Tankyrase 1 and 2: Autoparsylation assay
(§6) The autoparsylation assay is run in two steps: the enzymatic reaction in which GST-tagged Tankyrase-1, resp Tankyrase-2 transferred biotinylated ADP-ribose to itself from biotinylated NAD as co-substrate and the detection reaction where a time resolved FRET between cryptate labelled anti-GST bound to the GST tag of the enzyme and Xlent® labelled-streptavidin bound the biotin-parsylation residue is analysed. The autoparsylation activity was detectable directly via the increase in HTRF signal.
(§7) The autoparsylation assay is performed as 384-well HTRF® (Cisbio, Codolet, France) assay format in Greiner low volume nb 384-well microtiter plates and is used for high throughput screen. 250 nM GST-tagged Tankyrase-1 (1023-1327 aa), respectively about 250 nM GST-tagged Tankyrase-2 (873-1166 aa) and 5 μM bio-NAD (Biolog, Life science Inst., Bremen, Germany) as co-substrate are incubated in a total volume of 5 μl (50 mM HEPES, 4 mM Mg-chloride, 0.05% Pluronic F-68, 1.4 mM DTT, 0.5% DMSO, pH 7.7) in the absence or presence of the test compound (10 dilution concentrations) for 90 min at 30° C. The reaction is stopped by the addition of 1 μl 50 mM EDTA solution. 2 μl of the detection solution (1.6 μM SA-Xlent® (Cisbio, Codolet, France), 7.4 nM Anti-GST-K® (Eu-labelled anti-GST, Cisbio, Codolet, France) in 50 mM HEPES, 800 mM KF, 0.1% BSA, 20 mM EDTA, 0.1% CHAPS, pH 7.0) are added. After 1 h incubation at room temperature the HTRF is measured with an Envision multimode reader (Perkin Elmer LAS Germany GmbH) at excitation wavelength 340 nm (laser mode) and emission wavelengths 615 nm and 665 nm. The ratio of the emission signals is determined. The full value used is the inhibitor-free reaction. The pharmacological zero value used is XAV-939 (Tocris) in a final concentration of 5 μM. The inhibitory values (IC50) are determined using either the program Symyx Assay Explorer® or Condosseo® from GeneData.

Assay [4] has as its target T4, GST-tagged Tankyrase-2 (873-1166 aa) (Homo sapiens, UniProt Q9H2K2).
T4 construct: GST-tagged Tankyrase-2 (873-1166 aa)
Briefly: Tankyrase 2 autoparsylation HTRF enzyme assay. It is filed as biochemical. The following applies: read-out: IC50 TNKS2 enzyme assay. How it is done:
as §5, §6, §7
Background: TR-FRET usually uses a lanthanide donor and a delayed reading to cut background.

T3 sequence (O95271 1023-1327): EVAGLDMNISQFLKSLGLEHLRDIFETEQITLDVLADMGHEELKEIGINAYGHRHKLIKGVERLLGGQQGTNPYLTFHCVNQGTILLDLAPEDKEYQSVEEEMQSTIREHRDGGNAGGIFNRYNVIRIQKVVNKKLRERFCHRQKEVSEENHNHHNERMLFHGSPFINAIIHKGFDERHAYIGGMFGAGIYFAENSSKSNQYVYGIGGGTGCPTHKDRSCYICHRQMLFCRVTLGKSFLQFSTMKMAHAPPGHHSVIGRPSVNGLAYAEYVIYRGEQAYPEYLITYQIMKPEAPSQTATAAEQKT
T1 sequence (O95271 1023-1327): as above
T4 sequence (Q9H2K2 873-1166): as the sequence (Q9H2K2 873-1166) above

Regarding `COc1ccc(N(C)C(=O)N2CCC(C(=O)c3ccc(OC)nc3)CC2)cc1` [Compound A53, N-(4-methoxyphenyl)-4-(6-methoxypyridine-3-carbonyl)-N-methyl-piperidine-1-carboxamide], the EC50 in the assay on Tankyrase was in the range of 3e-07 to 3e-06 M. Moreover, the IC50 in assay [1] and in assay [2] was less than 300 nM in each case.
As for `O=C(c1ccccc1)C1CCN(C(=O)N2CCCc3ccccc32)CC1` [Compound A22, (4-benzoyl-piperidin-1-yl)-(3,4-dihydro-2H-quinolin-1-yl)-methanone], the IC50 in assay [3] was in the range of 3000 to 50000 nM; in assay [4], 3000 to 50000 nM; in assay [1], 300 to 3000 nM; in assay [2], 300 to 3000 nM. Further, in the assay on Tankyrase, the EC50 fell in the range of 3e-06 to 5e-05 M.
On to `CN(C(=O)N1CCC(C(=O)c2ccc(-c3cnn(CCN4CCCC4)c3)cc2)CC1)c1ccc(-c2cnn(CCN3CCCC3)c2)cc1` [Compound A37, 4-{4-[1-(2-pyrrolidin-1-yl-ethyl)-1H-pyrazol-4-yl]-benzoyl}-piperidine-1-carboxylic acid methyl-{4-[1-(2-pyrrolidin-1-yl-ethyl)-1H-pyrazol-4-yl]-phenyl}-amide], for which the EC50 in the assay on Tankyrase is 3e-07 to 3e-06 M. Moreover, the IC50 in assay [1] and in assay [2] was less than 300 nM throughout.
In the case of `COc1ccc(N(C)C(=O)N2CCC(C(=O)c3ccc(OC)c(F)c3)CC2)cn1` [Compound A42, 4-(3-fluoro-4-methoxy-benzoyl)-N-(6-methoxy-3-pyridyl)-N-methyl-piperidine-1-carboxamide], the IC50 is less than 300 nM in assay [3], 300 to 3000 nM in assay [4], less than 300 nM in assay [1] and less than 300 nM in assay [2]. Also, in the assay on Tankyrase, the concentration giving a half-maximal response (EC50) was less than 3e-07 M.
For the molecule `COc1ccc(C(=O)C2CCN(C(=O)N(C)c3ccc(OC)nc3)CC2)cc1` [Compound A49, 4-(4-methoxybenzoyl)-N-(6-methoxy-3-pyridyl)-N-methyl-piperidine-1-carboxamide], the half-inhibitory concentration (IC50) in assay [3] is less than 300 nM; in assay [4], 300 to 3000 nM; in assay [1], less than 300 nM; in assay [2], less than 300 nM. In addition, in the assay with Tankyrase, the concentration for a half-maximal effect (EC50) is less than 3e-07 M.
Take `O=C(c1ccc(F)cc1)C1CCN(C(=O)N2CCc3ccccc32)CC1` [Compound A20, (2,3-dihydro-indol-1-yl)-[4-(4-fluoro-benzoyl)-piperidin-1-yl]-methanone]: the 50% inhibitory concentration (IC50) in assay [3] was 300 to 3000 nM; in assay [4], 300 to 3000 nM; in assay [1] it was less than 300 nM; in assay [2], less than 300 nM. Further, the EC50 with Tankyrase lay in the range of 3e-06 to 5e-05 M.
For the molecule `COc1ccc(N(C)C(=O)N2CCC(C(=O)c3ccc(Cl)cc3)CC2)cc1` [Compound A9, 4-(4-chloro-benzoyl)-piperidine-1-carboxylic acid (4-methoxy-phenyl)-methylamide], the 50% inhibitory concentration (IC50) was less than 300 nM in assay [3], 300 to 3000 nM in assay [4], less than 300 nM in assay [1] and less than 300 nM in assay [2]. Also, the EC50 in the assay on Tankyrase lay in the range of 3e-07 to 3e-06 M.
As for `CCn1cc(-c2ccc(C(=O)C3CCN(C(=O)N(C)c4ccc(-c5cnn(CC)c5)cc4)CC3)cc2)cn1` [Compound A57, 4-[4-(1-Ethyl-1H-pyrazol-4-yl)-benzoyl]-piperidine-1-carboxylic acid [4-(1-ethyl-1H-pyrazol-4-yl)-phenyl]-methyl-amide], in the assay on Tankyrase, the EC50 was less than 3e-07 M. Moreover, the IC50 in assay [1] and in assay [2] was less than 300 nM each time.
With `O=C(c1cccc(F)c1)C1CCN(C(=O)N2CCc3ccccc32)CC1` [Compound A19, (2,3-dihydro-indol-1-yl)-[4-(3-fluoro-benzoyl)-piperidin-1-yl]-methanone], the IC50 in assay [3] is 300 to 3000 nM; in assay [4] it was 300 to 3000 nM; in assay [1] it was less than 300 nM; in assay [2], less than 300 nM. In the assay on Tankyrase, the EC50 fell in the range of 3e-06 to 5e-05 M.
As for `COc1ccc(N(C)C(=O)N2CCC(C(=O)c3ccc(OC)c(C)c3)CC2)cn1` [Compound A52, 4-(4-methoxy-3-methyl-benzoyl)-N-(6-methoxy-3-pyridyl)-N-methyl-piperidine-1-carboxamide], the EC50 in the assay with Tankyrase is less than 3e-07 M. Also, the 50% inhibitory concentration (IC50) in assay [1] and in assay [2] was less than 300 nM each time.
For `CCn1cc(-c2ccc(C(=O)C3CCN(C(=O)N(C)c4ccc(OC)nc4)CC3)cc2)cn1` [Compound A48, 4-[4-(1-ethylpyrazol-4-yl)benzoyl]-N-(6-methoxy-3-pyridyl)-N-methyl-piperidine-1-carboxamide], the concentration for a half-maximal effect (EC50) in the assay on Tankyrase lay in the range of 3e-07 to 3e-06 M. Further, the IC50 in assay [1] and in assay [2] was less than 300 nM in each case.
As to `COc1ccc(N(C)C(=O)N2CCC(C(=O)c3ccccc3)CC2)cn1` [Compound A44, 4-benzoyl-N-(6-methoxy-3-pyridyl)-N-methyl-piperidine-1-carboxamide], in the assay on Tankyrase, the EC50 was 3e-07 to 3e-06 M. In addition, the IC50 in assay [1] and in assay [2] was less than 300 nM throughout.
Regarding `CCN(C(=O)N1CCC(C(=O)c2ccc(OC)nc2)CC1)c1ccc(OC)cc1` [Compound A43, N-ethyl-N-(4-methoxyphenyl)-4-(6-methoxypyridine-3-carbonyl)piperidine-1-carboxamide], the EC50 with Tankyrase was less than 3e-07 M. The IC50 in assay [1] and in assay [2] was less than 300 nM in each case.

By EC50 is commonly meant the midpoint of the concentration-response curve. A word on the IC50: it is the concentration needed to halve the response being measured.
